Measured values taken from ChEMBL document CHEMBL5113513, “Selective Inhibitors of Medium-Size S1' Pocket Matrix Metalloproteinases: A Stepping Stone of Future Drug Discovery” (J Med Chem, 2022).

Key:
Neutrophil collagenase [1] = biological target: T1, Neutrophil collagenase (Homo sapiens, UniProt P22894); experiment: Inhibition of recombinant human MMP-8 for 3 hrs using colorimetric substrate by ELISA
Interstitial collagenase [2] = biological target: T2, Interstitial collagenase (Homo sapiens, UniProt P03956); experiment: Inhibition of recombinant human MMP-1 for 3 hrs using colorimetric substrate by ELISA
T2 sequence (P03956 whole entry): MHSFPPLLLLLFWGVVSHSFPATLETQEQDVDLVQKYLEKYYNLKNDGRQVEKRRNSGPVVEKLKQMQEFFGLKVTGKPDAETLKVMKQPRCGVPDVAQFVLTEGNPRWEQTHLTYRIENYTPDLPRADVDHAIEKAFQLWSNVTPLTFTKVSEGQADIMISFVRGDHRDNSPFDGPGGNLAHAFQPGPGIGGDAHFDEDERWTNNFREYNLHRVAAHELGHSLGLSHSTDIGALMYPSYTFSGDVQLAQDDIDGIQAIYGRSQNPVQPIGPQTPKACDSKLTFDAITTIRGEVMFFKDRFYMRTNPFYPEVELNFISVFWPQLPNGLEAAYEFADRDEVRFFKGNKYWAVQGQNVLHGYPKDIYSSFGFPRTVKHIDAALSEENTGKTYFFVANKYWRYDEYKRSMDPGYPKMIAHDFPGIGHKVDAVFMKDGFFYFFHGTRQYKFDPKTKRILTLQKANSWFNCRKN

[3] = biological target: T3, 72 kDa type IV collagenase (Homo sapiens, UniProt P08253); experiment: Inhibition of recombinant human MMP-2 for 3 hrs using colorimetric substrate by ELISA
T3 sequence (P08253 whole entry): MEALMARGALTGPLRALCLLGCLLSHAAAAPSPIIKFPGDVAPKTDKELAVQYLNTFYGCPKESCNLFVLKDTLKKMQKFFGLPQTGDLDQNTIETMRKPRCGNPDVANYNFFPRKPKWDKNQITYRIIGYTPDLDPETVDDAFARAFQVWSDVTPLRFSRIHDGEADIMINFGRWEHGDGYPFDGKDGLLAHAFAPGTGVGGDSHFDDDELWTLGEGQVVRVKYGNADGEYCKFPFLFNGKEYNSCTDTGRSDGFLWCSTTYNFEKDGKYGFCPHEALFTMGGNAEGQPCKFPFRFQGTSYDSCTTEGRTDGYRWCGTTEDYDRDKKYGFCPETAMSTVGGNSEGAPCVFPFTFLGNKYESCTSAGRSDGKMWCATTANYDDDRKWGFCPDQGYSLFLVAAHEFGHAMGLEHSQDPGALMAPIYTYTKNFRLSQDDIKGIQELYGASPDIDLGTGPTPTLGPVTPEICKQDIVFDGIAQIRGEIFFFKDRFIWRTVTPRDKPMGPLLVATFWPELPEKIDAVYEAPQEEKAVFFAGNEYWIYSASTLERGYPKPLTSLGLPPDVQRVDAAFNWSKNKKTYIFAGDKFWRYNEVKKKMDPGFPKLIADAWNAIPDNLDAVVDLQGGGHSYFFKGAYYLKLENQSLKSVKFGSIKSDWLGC

Interstitial collagenase [4] = biological target: T2, Interstitial collagenase; experiment: Inhibition of MMP-1 (unknown origin) using 7-(methoxycoumarin-4yl)acetyl-Pro-Leu-Gly-Leu-(N-3-[2,4-dinitrophenyl]- L-2,3-diamino-propionyl)-Ala-Arg-NH2 as fluorogenic substrate for 45 mins by fluorogenic analysis
[5] = biological target: T4, Matrix metalloproteinase-9 (Homo sapiens, UniProt P14780); experiment: Inhibition of recombinant human MMP-9 using peptide substrate by ELISA
T4 sequence (P14780 whole entry): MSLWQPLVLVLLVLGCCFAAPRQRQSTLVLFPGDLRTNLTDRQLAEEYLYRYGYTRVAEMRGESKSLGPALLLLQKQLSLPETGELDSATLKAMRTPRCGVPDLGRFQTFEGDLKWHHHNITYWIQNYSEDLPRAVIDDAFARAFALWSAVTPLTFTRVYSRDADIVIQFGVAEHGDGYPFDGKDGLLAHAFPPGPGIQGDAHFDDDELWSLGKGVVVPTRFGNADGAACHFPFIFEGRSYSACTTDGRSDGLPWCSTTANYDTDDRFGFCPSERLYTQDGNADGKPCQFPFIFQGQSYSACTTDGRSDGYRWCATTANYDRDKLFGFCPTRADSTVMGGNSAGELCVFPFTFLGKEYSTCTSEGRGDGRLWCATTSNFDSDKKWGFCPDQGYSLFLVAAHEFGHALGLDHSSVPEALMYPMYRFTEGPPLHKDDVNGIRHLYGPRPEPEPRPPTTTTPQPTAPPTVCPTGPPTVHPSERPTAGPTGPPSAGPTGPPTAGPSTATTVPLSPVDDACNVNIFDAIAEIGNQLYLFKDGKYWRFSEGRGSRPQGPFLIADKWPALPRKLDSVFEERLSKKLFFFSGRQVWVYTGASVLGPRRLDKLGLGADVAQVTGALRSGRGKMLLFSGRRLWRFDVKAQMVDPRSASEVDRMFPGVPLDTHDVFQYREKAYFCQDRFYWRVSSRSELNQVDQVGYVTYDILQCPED

Collagenase 3 = Collagenase 3 (Homo sapiens, UniProt P45452); experiment: Inhibition of recombinant human MMP-13 using peptide substrate by ELISA
[6] = biological target: Macrophage metalloelastase (Homo sapiens, UniProt P39900); experiment: Inhibition of recombinant human MMP-12 using peptide substrate by ELISA
Macrophage metalloelastase, sequence (P39900 whole entry): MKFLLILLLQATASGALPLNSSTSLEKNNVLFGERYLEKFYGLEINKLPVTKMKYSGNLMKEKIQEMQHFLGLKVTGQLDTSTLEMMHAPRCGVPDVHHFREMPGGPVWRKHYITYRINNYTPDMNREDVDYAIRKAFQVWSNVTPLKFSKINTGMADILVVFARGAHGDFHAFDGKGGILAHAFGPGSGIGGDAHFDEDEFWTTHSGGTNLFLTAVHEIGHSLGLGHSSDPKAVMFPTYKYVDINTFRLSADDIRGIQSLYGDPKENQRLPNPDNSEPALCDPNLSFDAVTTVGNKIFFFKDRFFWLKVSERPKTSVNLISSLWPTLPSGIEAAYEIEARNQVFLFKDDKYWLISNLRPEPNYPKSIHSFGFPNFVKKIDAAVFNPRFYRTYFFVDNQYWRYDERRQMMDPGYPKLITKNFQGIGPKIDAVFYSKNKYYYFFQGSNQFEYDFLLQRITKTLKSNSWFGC

[7] = Half life in Sprague-Dawley rats at 33 mg/kg, sc; format: ADME, organism-based; conditions: rat, in vivo
[8] = AUC in Sprague-Dawley rats at 33 mg/kg, po; format: ADME, organism-based; set-up: dose 33 mg/kg, route po; conditions: rat, in vivo
[9] = Clearance in Sprague-Dawley rats at 33 mg/kg, sc; format: ADME, organism-based; conditions: rat, in vivo
[10] = Half life in Sprague-Dawley rat at 33 mg/kg, po; format: ADME, organism-based; conditions: in vivo
[11] = AUC in Sprague-Dawley rats at 33 mg/kg, sc; format: ADME, organism-based; set-up: dose 33 mg/kg, route sc; conditions: rat, in vivo
[12] = biological target: T3, 72 kDa type IV collagenase; experiment: Inhibition of recombinant human MMP-2 using peptide substrate by ELISA
[13] = Inhibition of recombinant human TACE using peptide substrate by ELISA
[14] = biological target: T4, Matrix metalloproteinase-9; experiment: Inhibition of MMP-9 (unknown origin) using Mca-Pro-Leu-Gly-Leu-Dpa-Ala-Arg-NH2 as substrate preincubated for 30 mins followed by substrate addition for 2 to 4 hrs by fluorimetric assay
[15] = biological target: Matrix metalloproteinase-14 (Homo sapiens, UniProt P50281); experiment: Inhibition of MMP-14 (unknown origin) using Mca-Pro-Leu-Gly-Leu-Dpa-Ala-Arg-NH2 as substrate preincubated for 30 mins followed by substrate addition for 2 to 4 hrs by fluorimetric assay
Neutrophil collagenase [16] = biological target: T1, Neutrophil collagenase; experiment: Inhibition of MMP-8 (unknown origin) using Mca-Pro-Leu-Gly-Leu-Dpa-Ala-Arg-NH2 as substrate preincubated for 30 mins followed by substrate addition for 2 to 4 hrs by fluorimetric assay
[17] = Metabolic stability in rat assessed as clearance at 3 mg/kg, iv; format: ADME, organism-based; conditions: in vivo
[18] = Plasma concentration in rat at 3 mg/kg, iv measured upto 3 hrs; format: ADME, organism-based
[19] = Half life in rat at 3 mg/kg, iv; format: ADME, organism-based; conditions: in vivo
[20] = Oral bioavailability in dog at 3 mg/kg; format: ADME, organism-based, Canis lupus familiaris; conditions: in vivo
B16-F10 = experiment: Antitumor activity in mouse B16-F10 xenografted C57BL mouse lung metastasis model assessed as increase in life span measured per hour at 100 mg/kg, ip bid; format: functional
[21] = Oral bioavailability in rat at 3 mg/kg; format: ADME, organism-based; conditions: in vivo
[22] = Plasma concentration in dog at 3 mg/kg, iv measured upto 3 hrs; format: ADME, organism-based, Canis lupus familiaris
[23] = Oral bioavailability in cynomolgus monkey at 3 mg/kg; format: ADME, organism-based, Macaca fascicularis; conditions: in vivo
[24] = Metabolic stability in dog assessed as clearance at 3 mg/kg, iv; format: ADME, organism-based, Canis lupus familiaris; conditions: in vivo
[25] = Half life in cynomolgus monkey at 3 mg/kg, iv; format: ADME, organism-based, Macaca fascicularis; conditions: in vivo
[26] = Plasma concentration in cynomolgus monkey at 3 mg/kg, iv measured upto 3 hrs; format: ADME, organism-based, Macaca fascicularis
[27] = Metabolic stability in cynomolgus monkey assessed as clearance at 3 mg/kg, iv; format: ADME, organism-based, Macaca fascicularis; conditions: in vivo
Interstitial collagenase [28] = biological target: T2, Interstitial collagenase; experiment: Inhibition of MMP-1 (unknown origin) expressed in Escherichia coli BL21(DE3) and measured for 2 mins by enzymatic assay

T1 sequence (P22894 whole entry): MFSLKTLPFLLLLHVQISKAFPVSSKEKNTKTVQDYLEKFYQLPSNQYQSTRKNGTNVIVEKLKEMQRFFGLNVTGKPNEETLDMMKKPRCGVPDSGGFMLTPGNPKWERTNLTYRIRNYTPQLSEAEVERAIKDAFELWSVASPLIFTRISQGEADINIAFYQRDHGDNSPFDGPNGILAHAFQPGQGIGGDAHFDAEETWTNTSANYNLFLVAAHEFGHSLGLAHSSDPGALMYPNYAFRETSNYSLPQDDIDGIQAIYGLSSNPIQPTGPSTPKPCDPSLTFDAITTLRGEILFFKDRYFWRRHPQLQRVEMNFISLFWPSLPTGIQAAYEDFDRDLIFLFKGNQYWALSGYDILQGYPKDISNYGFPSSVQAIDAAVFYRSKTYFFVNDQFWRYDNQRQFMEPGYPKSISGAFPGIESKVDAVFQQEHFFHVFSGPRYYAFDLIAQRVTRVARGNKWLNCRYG

Question: With `CC(C)CNC(=O)P(=O)(O)O` as the molecule, how does the IC50 (Neutrophil collagenase [1]) read?
Answer: Its IC50 is 1000 nM.

Question: What about the IC50 (Interstitial collagenase [2]) of the same molecule?
Answer: Its IC50 is 40 µM.

Question: What about the IC50 [3] of the same molecule?
Answer: The IC50 was > 100 µM.

Question: Which Ki (Interstitial collagenase [4]) does the source give for `C=C[C@@H]1OC(Cc2ccccc2)=N[C@H]1CO` here?
Answer: The Ki was > 500 µM.

Question: What does the source list for `O=C(NCCCCCCNS(=O)(=O)c1ccc(Oc2ccccc2)cc1)P(=O)(O)O`?
Answer: IC50 [5]: > 100 nM; IC50 (Collagenase 3): > 100 nM; IC50 [6]: > 100 nM; half-life [7]: 396 min; AUC [8]: 3300 ng·h/mL; CL/F [9]: 7.1 mL/min/kg; half-life [10]: 348 min; AUC [11]: 50500 ng·h/mL; IC50 [12]: 4 nM; IC50 [13]: 20 nM

Question: With `O=P(O)(O)C(NS(=O)(=O)c1ccc(-c2ccc(Cl)cc2)cc1)P(=O)(O)O` as the molecule, how does the IC50 [14] read?
Answer: Its IC50 is > 1000 nM.

Question: What about the IC50 [15] of the same molecule?
Answer: The IC50 was > 1000 nM.

Question: And the IC50 (Neutrophil collagenase [16])?
Answer: The IC50 was 320 nM.

Question: For `CC1(C)NC(=O)N(C[C@@H](COc2ccc(-c3ccc(OC(F)(F)F)cc3)cc2)N(O)C=O)C1=O`, which clearance [17] is on record?
Answer: The clearance was 2 mL/min/kg.

Question: What about the concentration at 3 h [18] of the same molecule?
Answer: Its concentration at 3 h is 1500 ng/mL.

Question: What about the half-life [19] of the same molecule?
Answer: Its half-life is 480 min.

Question: What about the bioavailability [20] of the same molecule?
Answer: The bioavailability was 84%.

Question: And the Activity (B16-F10)?
Answer: The Activity was 46%.

Question: And the bioavailability [21]?
Answer: Its bioavailability is 84%.

Question: And the concentration at 3 h [22]?
Answer: Its concentration at 3 h is 1500 ng/mL.

Question: What about the bioavailability [23] of the same molecule?
Answer: Its bioavailability is 84%.

Question: What about the clearance [24] of the same molecule?
Answer: Its clearance is 1.83 mL/min/kg.

Question: And the half-life [25]?
Answer: The half-life was 1260 min.

Question: What about the concentration at 3 h [26] of the same molecule?
Answer: The concentration at 3 h was 1500 ng/mL.

Question: What about the clearance [27] of the same molecule?
Answer: Its clearance is 1.13 mL/min/kg.

Question: For `O=C(NO)C1c2ccc(O)cc2CCN1S(=O)(=O)c1cc(Cl)ccc1Cl` (stereo not given), which IC50 (Interstitial collagenase [28]) is on record?
Answer: Its IC50 is 50 µM.
